Experimental data taken from ChEMBL document CHEMBL5344410, “Design, development and evaluation of a prodrug-type TrkA-selective inhibitor with antinociceptive effects in vivo” (Eur J Med Chem, 2023).
Each block holds one molecule with its values, some of them ahead of it. Activity calls are given as the source filed them. The rule behind the calls is not given here.

Tests used:
[1] = target: T1, High affinity nerve growth factor receptor (Homo sapiens, UniProt P04629); experiment: Inhibition of TRKA (unknown origin) using Kinase substrate 22 pre-incubated with compound for 10 mins followed by substrate and ATP addition measured after 30 mins by mobility shift assay based caliper reader analysis
Target sequence in this assay (P04629 whole entry): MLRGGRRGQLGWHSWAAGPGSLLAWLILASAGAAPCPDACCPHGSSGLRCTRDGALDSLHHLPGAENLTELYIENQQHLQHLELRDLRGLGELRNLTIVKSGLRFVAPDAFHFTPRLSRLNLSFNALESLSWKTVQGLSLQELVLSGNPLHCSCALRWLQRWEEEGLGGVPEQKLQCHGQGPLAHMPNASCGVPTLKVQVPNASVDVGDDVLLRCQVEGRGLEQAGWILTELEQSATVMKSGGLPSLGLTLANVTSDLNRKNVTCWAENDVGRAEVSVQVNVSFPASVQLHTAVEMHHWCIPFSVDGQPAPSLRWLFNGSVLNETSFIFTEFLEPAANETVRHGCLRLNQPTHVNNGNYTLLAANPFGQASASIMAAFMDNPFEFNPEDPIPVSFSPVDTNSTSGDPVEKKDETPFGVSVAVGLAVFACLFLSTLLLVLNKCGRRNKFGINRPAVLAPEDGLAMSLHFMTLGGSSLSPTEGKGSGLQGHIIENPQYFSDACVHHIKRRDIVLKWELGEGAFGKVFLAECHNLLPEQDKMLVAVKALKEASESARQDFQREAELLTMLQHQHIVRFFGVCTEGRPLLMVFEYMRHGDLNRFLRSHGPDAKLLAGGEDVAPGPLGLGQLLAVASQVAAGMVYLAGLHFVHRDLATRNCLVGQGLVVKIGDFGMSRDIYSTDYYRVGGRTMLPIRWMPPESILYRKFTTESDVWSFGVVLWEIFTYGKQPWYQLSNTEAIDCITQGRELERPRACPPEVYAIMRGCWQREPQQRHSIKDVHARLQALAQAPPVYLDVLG

[2] = target: NT-3 growth factor receptor (Homo sapiens, UniProt Q16288); experiment: Inhibition of TRKC (unknown origin) using Kinase substrate 22 pre-incubated with compound for 10 mins followed by substrate and ATP addition measured after 30 mins by mobility shift assay based caliper reader analysis
Sequence of NT-3 growth factor receptor (Q16288 whole entry): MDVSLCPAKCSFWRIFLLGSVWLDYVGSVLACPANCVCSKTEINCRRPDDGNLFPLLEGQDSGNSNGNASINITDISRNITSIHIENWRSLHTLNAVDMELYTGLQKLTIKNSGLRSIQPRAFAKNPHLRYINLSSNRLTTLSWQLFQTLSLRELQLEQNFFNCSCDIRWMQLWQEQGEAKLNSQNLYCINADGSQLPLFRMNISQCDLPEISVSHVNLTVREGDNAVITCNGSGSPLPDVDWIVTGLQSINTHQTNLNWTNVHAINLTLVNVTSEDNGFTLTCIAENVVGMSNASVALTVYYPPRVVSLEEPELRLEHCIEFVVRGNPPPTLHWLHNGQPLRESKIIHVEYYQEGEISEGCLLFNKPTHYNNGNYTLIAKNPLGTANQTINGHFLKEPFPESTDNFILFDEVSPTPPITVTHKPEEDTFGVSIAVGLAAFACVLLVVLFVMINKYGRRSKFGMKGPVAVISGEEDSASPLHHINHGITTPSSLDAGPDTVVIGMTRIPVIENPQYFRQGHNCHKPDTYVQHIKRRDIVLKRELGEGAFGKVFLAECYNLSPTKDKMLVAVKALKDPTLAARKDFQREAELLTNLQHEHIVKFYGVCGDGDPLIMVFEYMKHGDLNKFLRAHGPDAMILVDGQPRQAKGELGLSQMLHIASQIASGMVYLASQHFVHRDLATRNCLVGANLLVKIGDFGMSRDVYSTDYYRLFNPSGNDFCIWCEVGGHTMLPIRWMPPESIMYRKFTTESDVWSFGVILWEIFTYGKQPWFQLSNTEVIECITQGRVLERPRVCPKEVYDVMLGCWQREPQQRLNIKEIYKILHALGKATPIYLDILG

[3] = target: BDNF/NT-3 growth factors receptor (Homo sapiens, UniProt Q16620); experiment: Inhibition of TRKB (unknown origin) using Kinase substrate 22 pre-incubated with compound for 10 mins followed by substrate and ATP addition measured after 30 mins by mobility shift assay based caliper reader analysis
Sequence of BDNF/NT-3 growth factors receptor (Q16620 whole entry): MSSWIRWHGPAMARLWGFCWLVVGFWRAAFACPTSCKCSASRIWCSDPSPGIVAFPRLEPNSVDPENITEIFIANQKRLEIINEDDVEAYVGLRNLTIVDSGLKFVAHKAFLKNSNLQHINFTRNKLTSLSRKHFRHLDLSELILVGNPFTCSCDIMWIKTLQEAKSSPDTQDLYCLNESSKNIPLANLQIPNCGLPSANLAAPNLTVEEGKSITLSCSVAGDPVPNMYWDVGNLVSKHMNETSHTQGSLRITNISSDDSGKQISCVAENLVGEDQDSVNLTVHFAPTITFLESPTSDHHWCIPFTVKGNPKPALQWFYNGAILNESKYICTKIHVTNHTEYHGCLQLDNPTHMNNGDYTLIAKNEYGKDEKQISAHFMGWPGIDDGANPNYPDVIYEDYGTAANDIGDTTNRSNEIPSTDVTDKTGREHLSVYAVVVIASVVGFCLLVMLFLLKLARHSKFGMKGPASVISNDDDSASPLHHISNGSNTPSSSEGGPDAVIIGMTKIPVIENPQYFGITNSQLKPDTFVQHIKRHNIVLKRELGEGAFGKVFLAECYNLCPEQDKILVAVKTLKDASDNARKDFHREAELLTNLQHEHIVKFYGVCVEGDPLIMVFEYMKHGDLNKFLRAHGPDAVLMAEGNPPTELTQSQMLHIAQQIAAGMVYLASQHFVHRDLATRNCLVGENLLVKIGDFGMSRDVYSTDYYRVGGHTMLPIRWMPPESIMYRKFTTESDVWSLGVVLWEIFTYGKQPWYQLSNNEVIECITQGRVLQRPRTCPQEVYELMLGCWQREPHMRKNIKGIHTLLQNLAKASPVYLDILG

[4] = tested on: Mus musculus; experiment: Antinociceptive activity in Kunming mouse assessed as reduction in nociceptive response at 100 mg/kg,IG administration and measured for 1 to 6 hrs by hot plate test; type: functional, organism-based; conditions: time 1-6 hrs
[5] = tested on: Mus musculus; experiment: Antinociceptive activity in ATP-induced Kunming mouse assessed as reduction in nociceptive response at 40 mg/kg,IG administration and measured after 1 hr by hot plate test; type: functional, organism-based
[6] = tested on: Mus musculus; experiment: Antinociceptive activity in Kunming mouse assessed as reduction in nociceptive response at 8 mg/kg,IG administrated with TRKA activator, Amitriptyline and measured at 3 hrs by hot plate test; type: functional, organism-based
[7] = Drug metabolism in mouse hepatocyte assessed as N-(5-Hydroxy-2-phenylpyridin-3-y1)-3-(1-methyl-1H-pyrazol-3-y1)-4-(trifluoromethyl) benzamide metabolite formation at 2 uM incubated for 30 mins by LC-MS/MS analysis; type: ADME, cell-based; conditions: hepatocytes, 0.5 h
[8] = tested on: Mus musculus; experiment: Antinociceptive activity against formalin-induced pain in C57BL/6N mouse assessed as reduction in nociceptive response in phase I at IG administration for 1 hr followed by formalin challenge; type: functional, organism-based
[9] = Drug uptake in Kunming mouse blood at 15 mg/kg,IG administration measured after 30 mins by LC-MS/MS analysis; type: ADME, organism-based; conditions: in vivo, po, 0.5 h
[10] = tested on: Mus musculus; experiment: Antinociceptive activity in Kunming mouse assessed as reduction in nociceptive response at 40 mg/kg,IG administration and measured after 1 hr by hot plate test; type: functional; set-up: scale not given: the % may be the effect or the level left
[11] = tested on: Mus musculus; experiment: Antinociceptive activity in Kunming mouse assessed as reduction in nociceptive response at 15 mg/kg,IG administration and measured after 1 hr by hot plate test; type: functional, organism-based
[12] = Drug metabolism in mouse hepatocyte assessed as 5-(3-(1-Methy1-1H-pyrazol-3-y1)-4-(trifluoromethyl)benzamido)-6-phenylnicotinic acid metabolite formation at 2 uM incubated for 30 mins by LC-MS/MS analysis; type: ADME, cell-based; conditions: hepatocytes, 0.5 h
[13] = tested on: Mus musculus; experiment: Antinociceptive activity in Kunming mouse assessed as reduction in nociceptive response by measuring effective dose at IG administration measured after 3 hr by hot plate test; type: functional; conditions: po
[14] = Drug metabolism in Kunming mouse blood assessed as 5-(3-(1-Methy1-1H-pyrazol3-yl)-4-(trifluoromethyl)benzamido)-6-phenylnicotinic acid metabolite formation at 15 mg/kg,IG administration measured after 1 hr by LC-MS/MS analysis; type: ADME, organism-based; conditions: in vivo, po
[15] = tested on: Mus musculus; experiment: Antinociceptive activity against formalin-induced pain in C57BL/6N mouse assessed as reduction in nociceptive response in phase II at IG administration for 1 hr followed by formalin challenge; type: functional, organism-based
[16] = tested on: Mus musculus; experiment: Antinociceptive activity in Kunming mouse assessed as reduction in nociceptive response at 40 mg/kg,IG administration and measured at 3 hrs by hot plate test; type: functional, organism-based
[17] = Drug metabolism in mouse hepatocyte assessed as 5-(3-(1-Methyl-1H-pyrazol-3-y1)-4-(trifluoromethyl)benzamido)-6-phenybridirt-3-yldihydrogen phosphate metabolite formation at 2 uM incubated for 30 mins by LC-MS/MS analysis; type: ADME, cell-based; conditions: hepatocytes, 0.5 h
[18] = target: T1, High affinity nerve growth factor receptor; experiment: Inhibition of human 6-His tagged TRKA expressed in Sf9 insect cells incubated for 2 hrs in presence of ATP by LanthaScreen based FRET assay relative to control; conditions: concentration not given here
Target sequence in this assay (P04629 33-796 limits assumed): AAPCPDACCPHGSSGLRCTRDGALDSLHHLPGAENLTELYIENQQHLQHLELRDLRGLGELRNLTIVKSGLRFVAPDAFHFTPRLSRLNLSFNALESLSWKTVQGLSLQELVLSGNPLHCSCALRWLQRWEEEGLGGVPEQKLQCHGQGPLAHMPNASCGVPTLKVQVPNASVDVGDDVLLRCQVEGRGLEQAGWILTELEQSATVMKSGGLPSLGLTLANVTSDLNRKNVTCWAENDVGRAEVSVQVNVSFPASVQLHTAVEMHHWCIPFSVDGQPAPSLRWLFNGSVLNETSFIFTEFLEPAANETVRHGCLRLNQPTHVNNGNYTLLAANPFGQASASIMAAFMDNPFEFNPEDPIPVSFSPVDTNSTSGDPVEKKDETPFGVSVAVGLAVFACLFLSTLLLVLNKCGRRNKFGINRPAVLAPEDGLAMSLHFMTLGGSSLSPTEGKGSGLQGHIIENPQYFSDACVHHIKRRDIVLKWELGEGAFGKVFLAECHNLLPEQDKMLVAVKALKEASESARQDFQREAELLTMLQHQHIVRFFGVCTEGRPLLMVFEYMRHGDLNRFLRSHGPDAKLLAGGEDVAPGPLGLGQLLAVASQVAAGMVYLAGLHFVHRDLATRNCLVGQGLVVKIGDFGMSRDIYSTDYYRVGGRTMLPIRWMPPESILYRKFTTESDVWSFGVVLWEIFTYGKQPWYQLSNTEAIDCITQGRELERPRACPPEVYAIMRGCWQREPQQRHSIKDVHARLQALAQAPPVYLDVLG

[19] = target: T1, High affinity nerve growth factor receptor; experiment: Inhibition of human 6-His tagged TRKA expressed in Sf9 insect cells incubated for 2 hrs in presence of ATP by LanthaScreen based FRET assay
Target sequence in this assay (P04629 whole entry): as the sequence (P04629 whole entry) above

[20] = tested on: Mus musculus; experiment: Antinociceptive activity in Kunming mouse assessed as reduction in nociceptive response at 40 mg/kg,IG administration and measured for 1 to 6 hrs by hot plate test; type: functional, organism-based; conditions: time 1-6 hrs

IC50 [1]: 0.0224 µM
IC50 [2]: 20.2 µM
IC50 [3]: 190 µM
SMILES: Cn1ccc(-c2cc(C(=O)Nc3cc(C(=O)O)cnc3-c3ccccc3)ccc2C(F)(F)F)n1

SMILES: CC(C)Cc1ccc(C(C)C(=O)O)cc1 (centres undefined)
Activity [4]: Active

Drug metabolism [7]: Metabolite_Detected
Drug uptake [9]: Not Active
Drug metabolism [12]: Metabolite_Detected
Drug metabolism [14]: Metabolite_Detected
Drug metabolism [17]: Metabolite_Notdetected
SMILES: CC(=O)OCOC(=O)c1cnc(-c2ccccc2)c(NC(=O)c2ccc(C(F)(F)F)c(-c3ccn(C)n3)c2)c1
Activity [5]: inactive
Activity [6]: inactive
Activity [8]: Dose-Dependent Effect
Activity [10]: 20%
Activity [11]: Active
ED50 [13]: 7.84 mg/kg
Activity [15]: Dose-Dependent Effect
Activity [16]: Active

IC50 [1]: 0.0027 µM
IC50 [2]: 2.48 µM
IC50 [3]: 1.3 µM
SMILES: CCOc1nn(-c2ccccc2)c(NC(=O)N[C@H]2CN(CCOC)C[C@@H]2c2ccc(F)c(F)c2)c1C

inhibition [18]: > 70%
IC50 [19]: 0.099 µM
IC50 [1]: 0.099 µM
IC50 [2]: 25 µM
IC50 [3]: > 81 µM
SMILES: Cc1ncc(-c2ccccc2)c(NC(=O)NC2c3ccccc3-c3ccccc32)n1

Drug metabolism [7]: Metabolite_Detected
Drug metabolism [12]: Metabolite_Detected
Drug metabolism [17]: Metabolite_Notdetected
SMILES: COC(=O)[C@H](C)NP(=O)(Oc1ccccc1)Oc1cnc(-c2ccccc2)c(NC(=O)c2ccc(C(F)(F)F)c(-c3ccn(C)n3)c2)c1 (some centres undefined)
Activity [5]: inactive
Activity [20]: Active
Activity [10]: 20%

IC50 [1]: 0.798 µM
IC50 [2]: > 500 µM
IC50 [3]: > 500 µM
SMILES: Cn1ccc(-c2cc(C(=O)Nc3cc(OP(=O)(O)O)cnc3-c3ccccc3)ccc2C(F)(F)F)n1

IC50 [1]: 0.0704 µM
IC50 [2]: > 500 µM
IC50 [3]: > 500 µM
SMILES: Cn1ccc(-c2cc(C(=O)Nc3cc(O)cnc3-c3ccccc3)ccc2C(F)(F)F)n1

IC50 [1]: 0.004 µM
IC50 [2]: 0.76 µM
SMILES: CC(=O)NCc1ncc(NC(=O)c2ccc(C(F)(F)F)c(-c3cn(C)cn3)c2)c(-c2ccccc2)n1
